Experimental data published in patent US9493455B2, “Azaindole derivatives as inhibitors of protein kinases” (ORIBASE PHARMA, priority 2012, dated 2016).

Key:
Assay in all cases: In vitro kinase assay (Z′-LYTE)
Format in all cases: biochemical
PKC theta = target: T1, PKC theta (Homo sapiens, UniProt Q04759); conditions: read-out: percent inhibition of the kinase compared to the control
T1 construct: purchased Invitrogen
In short: (§1)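 Read-out is a ratiometric FRET signal (donor/acceptor emission, 400 nm excitation) from a doubly labelled peptide, whose cleavage by a development protease depends on its phosphorylation state. ATP used at apparent Km in HEPES pH 7.5 buffer with MgCl2; compounds at 100 nM, or 10 μM for ABL T315I.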

HCK = target: T2, HCK (Homo sapiens, UniProt P08631); conditions: read-out: percent inhibition of the kinase compared to the control
T2 construct: purchased Invitrogen
T2 sequence (P08631 whole entry): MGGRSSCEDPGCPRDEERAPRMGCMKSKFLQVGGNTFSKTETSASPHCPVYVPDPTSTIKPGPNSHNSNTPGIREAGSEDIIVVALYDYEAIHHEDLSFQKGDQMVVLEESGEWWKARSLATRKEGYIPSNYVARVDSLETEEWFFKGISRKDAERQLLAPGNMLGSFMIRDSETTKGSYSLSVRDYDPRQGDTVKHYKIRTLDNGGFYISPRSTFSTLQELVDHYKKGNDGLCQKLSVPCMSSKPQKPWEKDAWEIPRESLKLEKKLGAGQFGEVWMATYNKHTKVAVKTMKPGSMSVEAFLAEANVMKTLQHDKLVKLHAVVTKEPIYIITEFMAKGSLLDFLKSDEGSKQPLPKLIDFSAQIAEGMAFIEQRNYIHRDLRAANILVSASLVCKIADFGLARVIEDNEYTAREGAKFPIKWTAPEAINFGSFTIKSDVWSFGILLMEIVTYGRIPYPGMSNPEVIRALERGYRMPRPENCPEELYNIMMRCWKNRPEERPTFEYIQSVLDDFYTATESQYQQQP
In short: as §1

BTK = target: T3, BTK (Homo sapiens, UniProt Q06187); conditions: read-out: percent inhibition of the kinase compared to the control
T3 construct: purchased Invitrogen
In short: as §1

EPHA1 = target: T4, EPHA1 (Homo sapiens, UniProt P21709); conditions: read-out: percent inhibition of the kinase compared to the control
T4 construct: purchased Invitrogen
In short: as §1

ABL = target: T5, ABL (Homo sapiens, UniProt P00519); conditions: read-out: % of inhibition of the kinase compared to the control
T5 construct: purchased Invitrogen

FRK = target: T6, FRK (Homo sapiens, UniProt P42685); conditions: read-out: percent inhibition of the kinase compared to the control
T6 construct: purchased Invitrogen
In short: as §1

EGFR (ErbB1) T790M L858R = target: T7, EGFR (ErbB1) T790M L858R (Homo sapiens, UniProt P00533, L858R/T790M); conditions: read-out: % of inhibition of the kinase compared to the control
T7 construct: purchased Invitrogen
In short: as §1

VEGFR1 = target: T8, VEGFR1 (Homo sapiens, UniProt P17948); conditions: read-out: % of inhibition of the kinase compared to the control
T8 construct: purchased Invitrogen
In short: as §1

EGFR (ErbB1) = target: T9, EGFR (ErbB1) (Homo sapiens, UniProt P00533); conditions: read-out: % of inhibition of the kinase compared to the control
T9 construct: purchased Invitrogen
In short: as §1

EPHA2 = target: T10, EPHA2 (Homo sapiens, UniProt P29317); conditions: read-out: percent inhibition of the kinase compared to the control
T10 construct: purchased Invitrogen
In short: as §1

PDGFRA (PDGFR alpha) = target: T11, PDGFRA (PDGFR alpha) (Homo sapiens, UniProt P16234); conditions: read-out: % of inhibition of the kinase compared to the control
T11 construct: purchased Invitrogen
In short: as §1

BLK = target: T12, BLK (Homo sapiens, UniProt P51451); conditions: read-out: percent inhibition of the kinase compared to the control
T12 construct: purchased Invitrogen
In short: as §1

ABL G250E = target: T13, ABL G250E (Homo sapiens, UniProt P00519, G250E); conditions: read-out: percent inhibition of the kinase compared to the control
T13 construct: purchased Invitrogen
In short: as §1

ABL2 = target: T14, ABL2 (Homo sapiens, UniProt P42684); conditions: read-out: percent inhibition of the kinase compared to the control
T14 construct: purchased Invitrogen
In short: as §1

FGFR2 = target: T15, FGFR2 (Homo sapiens, UniProt P21802); conditions: read-out: % of inhibition of the kinase compared to the control
T15 construct: purchased Invitrogen
In short: as §1

EPHB2 = target: T16, EPHB2 (Homo sapiens, UniProt P29323); conditions: read-out: percent inhibition of the kinase compared to the control
T16 construct: purchased Invitrogen
In short: as §1

ERBB4 = target: T17, ERBB4 (Homo sapiens, UniProt Q15303); conditions: read-out: percent inhibition of the kinase compared to the control
T17 construct: purchased Invitrogen
T17 sequence (Q15303 26-1308): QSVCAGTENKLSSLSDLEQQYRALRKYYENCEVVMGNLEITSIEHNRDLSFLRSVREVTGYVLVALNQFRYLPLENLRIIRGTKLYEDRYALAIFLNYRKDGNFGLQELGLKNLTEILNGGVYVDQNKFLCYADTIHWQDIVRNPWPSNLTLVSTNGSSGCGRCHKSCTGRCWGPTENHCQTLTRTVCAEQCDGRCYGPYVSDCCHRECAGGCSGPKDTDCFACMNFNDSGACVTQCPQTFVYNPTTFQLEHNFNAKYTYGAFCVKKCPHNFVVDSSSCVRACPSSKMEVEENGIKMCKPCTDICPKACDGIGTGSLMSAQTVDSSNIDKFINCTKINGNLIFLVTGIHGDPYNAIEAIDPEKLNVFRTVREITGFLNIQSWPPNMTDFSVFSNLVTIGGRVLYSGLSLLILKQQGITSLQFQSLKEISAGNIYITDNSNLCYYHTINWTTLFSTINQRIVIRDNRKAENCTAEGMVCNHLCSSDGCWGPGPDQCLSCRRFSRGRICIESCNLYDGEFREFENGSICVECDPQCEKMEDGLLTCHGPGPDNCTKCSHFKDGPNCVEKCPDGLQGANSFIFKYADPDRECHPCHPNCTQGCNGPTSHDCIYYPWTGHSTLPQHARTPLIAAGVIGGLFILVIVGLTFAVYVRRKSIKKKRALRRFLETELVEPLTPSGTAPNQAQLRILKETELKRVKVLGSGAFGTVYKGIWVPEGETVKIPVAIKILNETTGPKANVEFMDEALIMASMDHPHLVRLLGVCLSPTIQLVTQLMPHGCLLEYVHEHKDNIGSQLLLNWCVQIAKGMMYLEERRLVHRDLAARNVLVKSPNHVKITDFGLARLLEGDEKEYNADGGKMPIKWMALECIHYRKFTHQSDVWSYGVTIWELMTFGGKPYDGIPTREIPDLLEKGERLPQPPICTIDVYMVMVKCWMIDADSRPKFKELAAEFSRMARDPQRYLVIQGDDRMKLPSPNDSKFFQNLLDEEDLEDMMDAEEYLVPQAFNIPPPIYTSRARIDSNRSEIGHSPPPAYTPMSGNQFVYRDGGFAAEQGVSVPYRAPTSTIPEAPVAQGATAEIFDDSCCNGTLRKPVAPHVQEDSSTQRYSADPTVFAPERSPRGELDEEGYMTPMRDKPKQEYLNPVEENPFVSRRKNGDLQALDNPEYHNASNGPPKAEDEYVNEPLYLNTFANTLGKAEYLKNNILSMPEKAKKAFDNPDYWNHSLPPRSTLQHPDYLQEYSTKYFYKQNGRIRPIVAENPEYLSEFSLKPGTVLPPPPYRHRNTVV
In short: as §1

FYN = target: T18, FYN (Homo sapiens, UniProt P06241); conditions: read-out: percent inhibition of the kinase compared to the control
T18 construct: purchased Invitrogen
T18 sequence (P06241 whole entry): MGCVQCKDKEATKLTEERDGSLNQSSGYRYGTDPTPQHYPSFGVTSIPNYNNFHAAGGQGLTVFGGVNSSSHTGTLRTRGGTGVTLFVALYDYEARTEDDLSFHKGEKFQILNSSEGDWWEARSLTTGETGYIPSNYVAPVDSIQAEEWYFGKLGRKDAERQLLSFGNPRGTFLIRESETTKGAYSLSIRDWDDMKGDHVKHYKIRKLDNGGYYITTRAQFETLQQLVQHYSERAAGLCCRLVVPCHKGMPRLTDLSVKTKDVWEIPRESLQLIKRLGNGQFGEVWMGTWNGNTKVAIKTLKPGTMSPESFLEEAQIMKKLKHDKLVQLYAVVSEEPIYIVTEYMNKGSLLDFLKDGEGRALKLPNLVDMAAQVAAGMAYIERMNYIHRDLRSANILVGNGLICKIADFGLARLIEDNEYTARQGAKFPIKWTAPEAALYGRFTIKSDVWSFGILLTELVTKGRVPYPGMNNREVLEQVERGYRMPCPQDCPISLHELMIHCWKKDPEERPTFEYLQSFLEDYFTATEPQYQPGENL
In short: as §1

KDR (VEGFR2) = target: T19, KDR (VEGFR2) (Homo sapiens, UniProt P35968); conditions: read-out: % of inhibition of the kinase compared to the control
T19 construct: purchased Invitrogen
In short: as §1

BRAF V600E = target: T20, BRAF V600E (Homo sapiens, UniProt P15056, V600E); conditions: read-out: percent inhibition of the kinase compared to the control
T20 construct: purchased Invitrogen
T20 sequence (P15056 whole entry V600E): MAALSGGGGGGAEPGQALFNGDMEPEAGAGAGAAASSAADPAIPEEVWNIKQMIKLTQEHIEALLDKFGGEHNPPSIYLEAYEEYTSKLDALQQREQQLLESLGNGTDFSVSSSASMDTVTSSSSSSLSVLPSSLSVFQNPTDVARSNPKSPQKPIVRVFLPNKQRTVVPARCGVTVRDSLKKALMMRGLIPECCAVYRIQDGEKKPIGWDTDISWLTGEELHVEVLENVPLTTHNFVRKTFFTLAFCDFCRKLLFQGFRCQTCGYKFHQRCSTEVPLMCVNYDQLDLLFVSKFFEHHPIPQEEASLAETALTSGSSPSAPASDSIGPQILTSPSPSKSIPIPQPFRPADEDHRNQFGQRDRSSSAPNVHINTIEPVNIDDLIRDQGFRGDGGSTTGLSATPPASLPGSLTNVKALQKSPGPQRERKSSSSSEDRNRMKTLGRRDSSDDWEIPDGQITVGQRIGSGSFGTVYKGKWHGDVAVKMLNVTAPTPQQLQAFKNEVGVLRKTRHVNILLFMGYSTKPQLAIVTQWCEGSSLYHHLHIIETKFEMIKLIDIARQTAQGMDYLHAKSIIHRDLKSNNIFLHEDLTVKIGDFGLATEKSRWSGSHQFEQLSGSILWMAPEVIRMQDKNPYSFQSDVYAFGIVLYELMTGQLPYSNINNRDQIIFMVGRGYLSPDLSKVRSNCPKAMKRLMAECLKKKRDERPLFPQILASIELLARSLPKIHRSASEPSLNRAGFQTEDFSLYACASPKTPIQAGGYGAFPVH
In short: as §1

HER2 = target: T21, HER2 (Homo sapiens, UniProt P04626); conditions: read-out: percent inhibition of the kinase compared to the control
T21 construct: purchased Invitrogen
In short: as §1

SRC = target: T22, SRC (Homo sapiens, UniProt P12931); conditions: read-out: % of inhibition of the kinase compared to the control
T22 construct: purchased Invitrogen
In short: as §1

MAPK14 = target: T23, MAPK14 (Homo sapiens, UniProt Q16539); conditions: read-out: percent inhibition of the kinase compared to the control
T23 construct: purchased Invitrogen
T23 sequence (Q16539 whole entry): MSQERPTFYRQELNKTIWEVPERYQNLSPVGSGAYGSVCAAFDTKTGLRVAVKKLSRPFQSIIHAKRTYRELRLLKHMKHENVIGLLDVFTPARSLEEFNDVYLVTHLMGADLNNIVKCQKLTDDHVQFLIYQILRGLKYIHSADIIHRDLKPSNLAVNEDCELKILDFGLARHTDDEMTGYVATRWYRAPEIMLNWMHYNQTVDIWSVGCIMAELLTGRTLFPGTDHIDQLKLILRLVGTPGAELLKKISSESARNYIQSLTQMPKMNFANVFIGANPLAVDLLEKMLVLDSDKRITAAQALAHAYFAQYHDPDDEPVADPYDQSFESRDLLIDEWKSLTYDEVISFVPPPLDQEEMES
In short: as §1

EPHA4 = target: T24, EPHA4 (Homo sapiens, UniProt P54764); conditions: read-out: percent inhibition of the kinase compared to the control
T24 construct: purchased Invitrogen
In short: as §1

EPHB4 = target: T25, EPHB4 (Homo sapiens, UniProt P54760); conditions: read-out: percent inhibition of the kinase compared to the control
T25 construct: purchased Invitrogen
In short: as §1

ABL Y253F = target: T26, ABL Y253F (Homo sapiens, UniProt P00519, Y253F); conditions: read-out: percent inhibition of the kinase compared to the control
T26 construct: purchased Invitrogen
In short: as §1

ABL T315I = target: T27, ABL T315I (Homo sapiens, UniProt P00519, T315I); conditions: read-out: % of inhibition of the kinase compared to the control
T27 construct: purchased Invitrogen
In short: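 Z′-LYTE FRET assay: kinase phosphorylation of a dual-fluorophore peptide protects it from protease cleavage, and the donor/acceptor emission ratio after 400 nm excitation tracks progress. Compounds were tested at 100 nM, or at 10 μM against ABL T315I, in 1% DMSO final, with ATP at apparent Km.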

ABL E255K = target: T28, ABL E255K (Homo sapiens, UniProt P00519, E255K); conditions: read-out: percent inhibition of the kinase compared to the control
T28 construct: purchased Invitrogen
In short: as §1

BRAF = target: T29, BRAF (Homo sapiens, UniProt P15056); conditions: compound 100 nM; ATP 100 μM; read-out: % of inhibition of the kinase compared to the control
T29 construct: purchased Invitrogen
T29 sequence (P15056 whole entry): as the sequence (P15056 whole entry V600E) above, with E600V counted along it
In short: as §1

YES = target: T30, YES (Homo sapiens, UniProt P07947); conditions: read-out: percent inhibition of the kinase compared to the control
T30 construct: purchased Invitrogen
In short: as §1

FLT3 = target: T31, FLT3 (Homo sapiens, UniProt P36888); conditions: read-out: percent inhibition of the kinase compared to the control
T31 construct: purchased Invitrogen
T31 sequence (P36888 27-993): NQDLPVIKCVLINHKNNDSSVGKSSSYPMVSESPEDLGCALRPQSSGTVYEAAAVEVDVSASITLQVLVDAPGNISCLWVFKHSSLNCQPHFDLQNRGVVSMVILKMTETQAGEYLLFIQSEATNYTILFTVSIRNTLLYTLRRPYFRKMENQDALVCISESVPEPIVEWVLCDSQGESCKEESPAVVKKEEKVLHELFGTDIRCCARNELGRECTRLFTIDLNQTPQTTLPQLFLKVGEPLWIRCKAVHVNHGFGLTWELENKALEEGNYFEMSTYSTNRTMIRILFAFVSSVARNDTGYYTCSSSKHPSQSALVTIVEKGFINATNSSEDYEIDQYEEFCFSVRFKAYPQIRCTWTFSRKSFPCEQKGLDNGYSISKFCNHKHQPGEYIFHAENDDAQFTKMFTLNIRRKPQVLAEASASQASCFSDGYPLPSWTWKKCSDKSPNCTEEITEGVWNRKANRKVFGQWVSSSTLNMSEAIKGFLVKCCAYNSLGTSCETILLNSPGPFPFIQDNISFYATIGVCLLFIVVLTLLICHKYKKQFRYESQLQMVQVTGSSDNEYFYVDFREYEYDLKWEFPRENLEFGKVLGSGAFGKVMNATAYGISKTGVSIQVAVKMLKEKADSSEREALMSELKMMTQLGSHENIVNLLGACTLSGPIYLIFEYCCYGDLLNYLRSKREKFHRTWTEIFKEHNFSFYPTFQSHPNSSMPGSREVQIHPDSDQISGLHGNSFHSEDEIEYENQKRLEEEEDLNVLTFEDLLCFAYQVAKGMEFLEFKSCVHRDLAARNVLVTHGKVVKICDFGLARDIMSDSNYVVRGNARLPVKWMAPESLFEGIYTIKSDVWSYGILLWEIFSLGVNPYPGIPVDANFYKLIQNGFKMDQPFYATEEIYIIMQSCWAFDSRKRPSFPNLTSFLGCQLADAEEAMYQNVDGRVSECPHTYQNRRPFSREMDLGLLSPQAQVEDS
In short: as §1

LYN A = target: T32, LYN A (Homo sapiens, UniProt P07948); conditions: read-out: percent inhibition of the kinase compared to the control
T32 construct: purchased Invitrogen
T32 sequence (P07948 whole entry): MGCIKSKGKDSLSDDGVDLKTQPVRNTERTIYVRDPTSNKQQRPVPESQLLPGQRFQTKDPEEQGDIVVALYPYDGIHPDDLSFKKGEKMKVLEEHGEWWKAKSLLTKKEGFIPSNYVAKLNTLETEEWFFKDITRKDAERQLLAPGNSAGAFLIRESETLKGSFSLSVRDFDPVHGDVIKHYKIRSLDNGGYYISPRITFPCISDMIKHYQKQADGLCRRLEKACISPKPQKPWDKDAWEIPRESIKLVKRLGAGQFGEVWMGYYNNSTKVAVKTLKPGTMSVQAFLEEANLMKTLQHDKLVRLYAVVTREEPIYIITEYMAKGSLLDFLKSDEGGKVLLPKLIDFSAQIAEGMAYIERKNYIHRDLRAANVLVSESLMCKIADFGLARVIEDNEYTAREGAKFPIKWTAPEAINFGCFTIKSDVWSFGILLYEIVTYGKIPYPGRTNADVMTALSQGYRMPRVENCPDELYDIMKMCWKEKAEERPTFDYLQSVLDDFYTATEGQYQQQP
In short: as §1

inhibition at 0.1 µM (PKC theta): > 50% | inhibition at 0.1 µM (HCK): > 50% | inhibition at 0.1 µM (BTK): > 50% | inhibition at 0.1 µM (EPHA1): > 50% | inhibition at 10 µM (ABL): ≥ 50% | inhibition at 0.1 µM (FRK): > 50% | inhibition at 0.1 µM (EGFR (ErbB1) T790M L858R): < 50% | inhibition at 0.1 µM (VEGFR1): < 50% | inhibition at 0.1 µM (EGFR (ErbB1)): ≥ 50% | inhibition at 0.1 µM (EPHA2): > 50% | inhibition at 0.1 µM (PDGFRA (PDGFR alpha)): ≥ 50% | inhibition at 0.1 µM (BLK): > 50% | inhibition at 0.1 µM (ABL G250E): > 50% | inhibition at 0.1 µM (ABL2): > 50% | inhibition at 0.1 µM (FGFR2): ≥ 50% | inhibition at 0.1 µM (EPHB2): > 50% | inhibition at 0.1 µM (ERBB4): > 50% | inhibition at 0.1 µM (FYN): > 50% | inhibition at 0.1 µM (KDR (VEGFR2)): ≥ 50% | inhibition at 0.1 µM (BRAF V600E): > 50% | inhibition at 0.1 µM (HER2): > 50% | inhibition at 0.1 µM (SRC): ≥ 50% | inhibition at 0.1 µM (MAPK14): > 50% | inhibition at 0.1 µM (EPHA4): > 50% | inhibition at 0.1 µM (EPHB4): > 50% | inhibition at 0.1 µM (ABL Y253F): > 50% | inhibition at 10 µM (ABL T315I): ≥ 50% | inhibition at 0.1 µM (ABL E255K): > 50% | inhibition at 0.1 µM (BRAF): ≥ 50% | inhibition at 0.1 µM (YES): > 50% | inhibition at 0.1 µM (FLT3): > 50% | inhibition at 0.1 µM (LYN A): > 50%
Structure (SMILES): COC(=O)c1cc2cc(NCc3cc(NC(=O)c4ccc(CN5CCN(C)CC5)c(C(F)(F)F)c4)ccc3C)cnc2[nH]1 [OR0512]
